These results are taken from ChEMBL document CHEMBL1141561, “A new series of neutral 5-substituted 4-anilinoquinazolines as potent, orally active inhibitors of erbB2 receptor tyrosine kinase” (Bioorg Med Chem Lett, 2008).

Values after ≈ are worked out from the molar mass of the structure shown.

Data set [1] deals with Voltage-gated inwardly rectifying potassium channel KCNH2 (Homo sapiens, UniProt Q12809).
Data set [2] can be described thus: Dissociation constant, pKa of the compound. In kind it is physicochemical.
In data set [3] the target is T1, Receptor tyrosine-protein kinase erbB-2 (Homo sapiens, UniProt P04626). Description: Inhibition of ebrB2 expressed in human MCF7 cells by autophosphorylation assay. Type of data set: cell-based.
Data set [4] can be described thus: Fraction unbound ligand in mouse plasma protein. Type of data set: ADME, cell-free.
The test system of data set [5] is Rattus norvegicus. Description: Clearance in Han Wistar rat assessed as hepatic blood flow at 2 mg/kg, iv and 5 mg/kg, po. Type of data set: ADME, organism-based, Liver. The note with it: in vivo.
The nature of data set [6]: Fraction unbound ligand in Han Wistar rat plasma protein. In kind it is ADME, cell-free.
Data set [7] can be described thus: Bioavailability in Han Wistar rat at 2 mg/kg, iv and 5 mg/kg, po. The note with it: in vivo. In kind it is ADME, organism-based.
A further data set concerns KB. Description: cells. The conditions noted are these: Homo sapiens.
A short description of data set [8]: Volume of distribution at steady state in Beagle dog at 1 mg/kg, iv and 2 mg/kg, po. In kind it is ADME, organism-based, Canis lupus familiaris. The note with it: in vivo, read-out: Vdss.
For data set [9], the target named is Epidermal growth factor receptor (Homo sapiens, UniProt P00533).
A short description of data set [10]: Fraction unbound ligand in Beagle dog at 0.2 mg/kg, iv and 0.4 mg/kg, po. In kind it is ADME, organism-based, Canis lupus familiaris. The note with it: in vivo.
Data set [11] can be described thus: Volume of distribution at steady state in Han Wistar rat at 2 mg/kg, iv and 5 mg/kg, po. In kind it is ADME, organism-based. The conditions noted are these: in vivo, read-out: Vdss.
Data set [12] relates to Canis familiaris. Description: Clearance in Beagle dog assessed as hepatic blood flow at 1 mg/kg, iv and 2 mg/kg, po. In kind it is ADME, organism-based, Canis lupus familiaris, Liver. The note with it: in vivo.
The species entered for data set [13] is Mus musculus. Description: animal or person. The conditions noted are these: BT474c, po, 8 h, read-out: Inhibition.
The species named for data set [14] is Mus musculus. Description: animal or person. The note with it: BT474c, po, 1 h, read-out: Inhibition.
A short description of data set [15]: Bioavailability in Beagle dog at 1 mg/kg, iv and 2 mg/kg, po. The conditions noted are these: in vivo. Type of data set: ADME, organism-based, Canis lupus familiaris.
Data set [16] in a line: Solubility in aqueous phosphate buffer at pH 7.4 after 24 hrs. Type of data set: physicochemical.
Data set [17] in a line: Partition coefficient, log D at pH 7.4. Type of data set: physicochemical. The note with it: octanol/water.
Data set [18] is described as follows: Volume of distribution at steady state in Beagle dog at 0.2 mg/kg, iv and 0.4 mg/kg, po. In kind it is ADME, organism-based, Canis lupus familiaris. The note with it: in vivo, read-out: Vdss.
Data set [19] addresses T1, Receptor tyrosine-protein kinase erbB-2. Description: Inhibition of ebrB2.
A short description of the next data set: cells. The conditions noted are these: Homo sapiens, BT474c.
Data set [20] deals with Canis familiaris. Description: Clearance in Beagle dog assessed as hepatic blood flow at 0.2 mg/kg, iv and 0.4 mg/kg, po. The note with it: in vivo. Type of data set: ADME, organism-based, Canis lupus familiaris, Liver.
For data set [21], the species on record is Mus musculus. Description: animal or person. The conditions noted are these: BT474c, po, 8 h, read-out: Inhibition. This is another data set of the same source.
Data set [22] is filed under the species Mus musculus. Description: animal or person. The note with it: BT474c, po, 1 h, read-out: Inhibition. This is another data set of the same source.
A short description of data set [23]: Bioavailability in Beagle dog at 0.2 mg/kg, iv and 0.4 mg/kg, po. The note with it: in vivo. In kind it is ADME, organism-based, Canis lupus familiaris.
Data set [24] in a line: Volume of distribution at steady state in Han Wistar rat at 0.4 mg/kg, iv and 1 mg/kg, po. Type of data set: ADME, organism-based. The note with it: in vivo, read-out: Vdss.
Data set [25] is described as follows: Bioavailability in Han Wistar rat at 0.4 mg/kg, iv and 1 mg/kg, po. Type of data set: ADME, organism-based. The conditions noted are these: in vivo.
Data set [26] relates to Rattus norvegicus. Description: Clearance in Han Wistar rat assessed as hepatic blood flow at 0.4 mg/kg, iv and 1 mg/kg, po. In kind it is ADME, organism-based, Liver. The conditions noted are these: in vivo.

Chain of Epidermal growth factor receptor (P00533 whole entry): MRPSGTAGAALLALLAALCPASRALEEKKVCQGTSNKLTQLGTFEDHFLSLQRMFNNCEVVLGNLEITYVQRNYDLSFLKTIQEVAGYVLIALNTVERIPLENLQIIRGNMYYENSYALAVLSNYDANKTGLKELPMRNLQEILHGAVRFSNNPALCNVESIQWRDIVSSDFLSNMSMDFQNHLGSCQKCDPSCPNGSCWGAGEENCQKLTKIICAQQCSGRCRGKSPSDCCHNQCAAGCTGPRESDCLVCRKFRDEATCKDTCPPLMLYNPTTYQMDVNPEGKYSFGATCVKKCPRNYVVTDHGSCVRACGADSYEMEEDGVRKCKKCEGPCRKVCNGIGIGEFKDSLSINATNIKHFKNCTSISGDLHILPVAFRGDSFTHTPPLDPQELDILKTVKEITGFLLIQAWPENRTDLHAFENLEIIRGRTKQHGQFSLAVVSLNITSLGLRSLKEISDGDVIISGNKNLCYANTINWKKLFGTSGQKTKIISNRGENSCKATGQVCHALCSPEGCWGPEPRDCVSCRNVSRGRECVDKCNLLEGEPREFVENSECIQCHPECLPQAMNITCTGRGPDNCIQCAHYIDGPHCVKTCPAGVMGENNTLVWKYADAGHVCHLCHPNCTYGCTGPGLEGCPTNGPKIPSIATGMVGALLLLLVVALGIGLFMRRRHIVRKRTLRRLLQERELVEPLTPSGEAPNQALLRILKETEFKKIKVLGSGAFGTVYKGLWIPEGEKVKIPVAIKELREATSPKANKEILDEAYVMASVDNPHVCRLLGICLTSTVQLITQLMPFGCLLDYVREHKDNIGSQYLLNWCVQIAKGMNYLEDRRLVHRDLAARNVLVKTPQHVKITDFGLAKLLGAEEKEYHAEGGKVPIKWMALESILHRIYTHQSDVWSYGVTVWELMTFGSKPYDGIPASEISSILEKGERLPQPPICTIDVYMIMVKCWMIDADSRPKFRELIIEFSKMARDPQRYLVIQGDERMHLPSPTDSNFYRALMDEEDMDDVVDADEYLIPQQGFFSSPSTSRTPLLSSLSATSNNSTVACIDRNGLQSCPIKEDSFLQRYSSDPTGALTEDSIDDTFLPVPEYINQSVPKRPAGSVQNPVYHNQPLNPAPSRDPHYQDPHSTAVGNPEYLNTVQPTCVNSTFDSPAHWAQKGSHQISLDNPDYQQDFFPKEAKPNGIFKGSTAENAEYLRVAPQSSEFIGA
T1 sequence (P04626 whole entry): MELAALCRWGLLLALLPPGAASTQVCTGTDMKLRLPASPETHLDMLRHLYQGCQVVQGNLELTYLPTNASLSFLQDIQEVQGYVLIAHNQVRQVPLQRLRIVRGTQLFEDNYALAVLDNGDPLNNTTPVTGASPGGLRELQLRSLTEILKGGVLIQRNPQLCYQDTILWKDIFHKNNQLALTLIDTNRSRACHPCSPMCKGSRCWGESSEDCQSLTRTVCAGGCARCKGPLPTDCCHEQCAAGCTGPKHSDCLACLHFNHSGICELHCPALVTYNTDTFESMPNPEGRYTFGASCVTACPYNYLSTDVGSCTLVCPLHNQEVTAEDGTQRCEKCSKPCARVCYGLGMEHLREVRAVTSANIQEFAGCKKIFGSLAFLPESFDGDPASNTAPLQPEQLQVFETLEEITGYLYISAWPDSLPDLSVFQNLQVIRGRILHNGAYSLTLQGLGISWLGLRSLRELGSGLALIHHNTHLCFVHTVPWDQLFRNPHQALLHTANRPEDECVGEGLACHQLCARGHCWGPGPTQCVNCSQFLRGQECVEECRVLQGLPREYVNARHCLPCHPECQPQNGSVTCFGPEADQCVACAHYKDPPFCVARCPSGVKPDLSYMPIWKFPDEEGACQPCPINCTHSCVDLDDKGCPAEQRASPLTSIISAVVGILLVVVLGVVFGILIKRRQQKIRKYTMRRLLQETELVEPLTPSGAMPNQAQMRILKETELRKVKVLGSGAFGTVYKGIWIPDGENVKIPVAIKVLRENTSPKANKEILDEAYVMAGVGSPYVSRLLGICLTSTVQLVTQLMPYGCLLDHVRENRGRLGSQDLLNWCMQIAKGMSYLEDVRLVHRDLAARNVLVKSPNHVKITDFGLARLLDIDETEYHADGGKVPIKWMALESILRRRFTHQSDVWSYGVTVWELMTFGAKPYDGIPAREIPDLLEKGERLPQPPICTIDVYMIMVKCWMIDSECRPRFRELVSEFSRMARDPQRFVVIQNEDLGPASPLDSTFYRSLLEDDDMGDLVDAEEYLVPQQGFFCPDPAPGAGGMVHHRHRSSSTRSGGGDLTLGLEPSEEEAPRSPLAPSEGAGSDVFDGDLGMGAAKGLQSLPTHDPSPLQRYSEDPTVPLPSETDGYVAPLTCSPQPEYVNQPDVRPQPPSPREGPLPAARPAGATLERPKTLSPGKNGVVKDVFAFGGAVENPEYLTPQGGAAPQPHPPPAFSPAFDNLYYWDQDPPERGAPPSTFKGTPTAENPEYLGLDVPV
Chain of Voltage-gated inwardly rectifying potassium channel KCNH2 (Q12809 whole entry): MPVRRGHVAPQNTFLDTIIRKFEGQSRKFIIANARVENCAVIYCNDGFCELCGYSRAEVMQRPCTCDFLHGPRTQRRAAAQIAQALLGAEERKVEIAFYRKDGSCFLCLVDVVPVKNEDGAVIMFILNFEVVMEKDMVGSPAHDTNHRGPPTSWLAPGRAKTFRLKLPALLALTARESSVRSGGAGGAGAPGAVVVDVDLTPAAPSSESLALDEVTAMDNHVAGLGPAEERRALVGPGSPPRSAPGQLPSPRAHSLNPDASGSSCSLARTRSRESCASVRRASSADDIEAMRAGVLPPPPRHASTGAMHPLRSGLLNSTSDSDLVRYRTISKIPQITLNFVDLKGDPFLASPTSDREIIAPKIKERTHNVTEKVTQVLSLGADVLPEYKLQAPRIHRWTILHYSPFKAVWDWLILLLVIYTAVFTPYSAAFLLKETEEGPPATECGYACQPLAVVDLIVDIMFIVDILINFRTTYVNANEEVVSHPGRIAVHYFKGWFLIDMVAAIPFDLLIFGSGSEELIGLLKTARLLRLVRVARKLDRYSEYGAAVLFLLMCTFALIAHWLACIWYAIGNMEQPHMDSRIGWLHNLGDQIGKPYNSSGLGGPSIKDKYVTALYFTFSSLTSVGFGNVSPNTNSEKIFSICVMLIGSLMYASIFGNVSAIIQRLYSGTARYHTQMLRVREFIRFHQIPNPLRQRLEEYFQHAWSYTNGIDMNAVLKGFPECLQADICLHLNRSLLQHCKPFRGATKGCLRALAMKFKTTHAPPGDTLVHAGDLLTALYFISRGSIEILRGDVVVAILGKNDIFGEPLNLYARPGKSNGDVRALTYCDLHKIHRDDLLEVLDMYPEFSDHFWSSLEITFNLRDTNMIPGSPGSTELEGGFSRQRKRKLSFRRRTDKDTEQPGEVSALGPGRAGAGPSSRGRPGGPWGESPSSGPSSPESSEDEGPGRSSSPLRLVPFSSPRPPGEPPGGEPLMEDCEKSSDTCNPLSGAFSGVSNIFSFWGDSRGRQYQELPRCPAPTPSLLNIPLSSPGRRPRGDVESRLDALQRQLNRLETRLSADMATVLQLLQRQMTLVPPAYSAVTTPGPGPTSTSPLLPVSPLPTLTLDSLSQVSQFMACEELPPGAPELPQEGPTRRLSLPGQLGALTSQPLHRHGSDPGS

As a reminder, the IC50 is the concentration that gives 50% inhibition. High values mean lower potency, low ones higher potency. What is called pKa is the negative logarithm of the acid dissociation constant. Low readings indicate a stronger acid or weaker base, high ones a weaker acid or stronger base. In the case of `CN1CCC(Oc2cccc3ncnc(Nc4ccc(OCc5ccccn5)c(Cl)c4)c23)CC1`, the IC50 in [1] was found to be 5000 nM. In addition, the pKa in data set [2] came out at 8.1.
`Cc1ccc(Oc2ccc(Nc3ncnc4cccc(OCC(=O)N(C)CCO)c34)cc2C)cn1` came in with an IC50 in [3] of 130 nM.
For the compound `C[C@H](Oc1cccc2ncnc(Nc3ccc(OCc4ccccn4)c(Cl)c3)c12)C(=O)N(C)C`, the IC50 in [1] stood at 10000 nM; in [3], 43 nM.
Regarding `C[C@H](Oc1cccc2ncnc(Nc3ccc(OCc4ccccn4)c(Cl)c3)c12)C(=O)N(C)CCO`, in data set [3], the IC50 was 79 nM. That is a double-digit nanomolar value.
In general, fraction unbound refers to free concentration divided by total concentration. As a reminder, the bioavailability is the share of a dose that reaches the circulation, judged against a reference dose that is usually intravenous. The low end stands for poor availability, the high end for good availability. What is called solubility is the concentration that dissolves in the medium under given conditions. Low readings indicate a poorly soluble substance, high ones a readily soluble substance. What is called logD is the decadic logarithm of the distribution of all forms, ionised or not, between an organic phase and buffer at a given pH. Consider `Cc1ccc(Oc2ccc(Nc3ncnc4cccc(O[C@H](C)C(=O)N(C)C)c34)cc2C)cn1`, for which the IC50 in data set [1] was 8000 nM; in the data set on KB, 2700 nM; in data set [9], 1100 nM. Also, the fraction unbound worked out at 0.011 in [4], 0.017 in [6] and 0.025 in [10]. Also, the results for the “%hepatic blood flow” value in the data set on Rattus norvegicus [5] and in the data set on Canis familiaris [12] were 12% and 48%, respectively. The bioavailability in [7] was determined as 67%; in data set [15], 47%. Moreover, the Vd was determined as 1.8 L/kg in data set [8] and 0.9 L/kg in data set [11]. Moreover, the inhibition in vivo at 100 mg/kg was found to be 55% in the data set listed under Mus musculus [13] and 37% in the data set filed under Mus musculus [14]. In [16], this compound came in with a solubility at 24 h of 28 µM (≈ 12.8 µg/mL). Also, in [17], the logD was over 4.3.
In turn, `COCCN(C)C(=O)[C@@H](C)Oc1cccc2ncnc(Nc3ccc(Oc4ccc(C)nc4)c(C)c3)c12` registered an IC50 in data set [3] of 120 nM.
Turning to `Cc1ccc(Oc2ccc(Nc3ncnc4cccc(O[C@H](C)C(=O)N(C)CCO)c34)cc2C)cn1`, the Vd in data set [18] was 0.9 L/kg; in data set [11], 1 L/kg. In addition, the IC50 in [19] was 2 nM; in the data set “cells”, 270 nM; in the data set with KB it was 23000 nM; in data set [9], 2000 nM; in [3], 69 nM. In addition, the fraction unbound amounted to 0.025 in data set [4], 0.029 in [6] and 0.038 in data set [10]. The entries for the “%hepatic blood flow” value in the data set with Canis familiaris [20] and in the data set on Rattus norvegicus [5] were 34% and 23%, respectively. Moreover, the bioavailability was 34% in [7] and 33% in data set [23]. Moreover, the inhibition in vivo at 100 mg/kg is 36% in the data set listed under Mus musculus [21] and 78% in the data set filed under Mus musculus [22]. This compound came in with a solubility at 24 h in data set [16] of 66 µM (≈ 32.2 µg/mL). This compound returned a logD in data set [17] of 3.8.
Consider `C[C@@H](Oc1cccc2ncnc(Nc3ccc(OCc4ccccn4)c(Cl)c3)c12)C(=O)N(C)CCO`, for which, in data set [3], the IC50 turned out to be 31 nM. That is a double-digit nanomolar value.
For `CN1CCN(C(=O)COc2cccc3ncnc(Nc4ccc(OCc5ccccn5)c(Cl)c4)c23)CC1`, the IC50 in data set [3] was 350 nM.
As for `CN(CCO)C(=O)COc1cccc2ncnc(Nc3ccc(OCc4ccccn4)c(Cl)c3)c12`, in [3], 120 nM corresponded to half-maximal inhibition (IC50).
On the same count and under the same terms, for `O=C(COc1cccc2ncnc(Nc3ccc(OCc4ccccn4)c(Cl)c3)c12)N1CCOCC1` the value was 140 nM; for `Cc1ccc(Oc2ccc(Nc3ncnc4cccc(O[C@H](C)C(=O)NCCO)c34)cc2C)cn1`, 200 nM.
`NC(=O)COc1cccc2ncnc(Nc3ccc(OCc4ccccn4)c(Cl)c3)c12` had an IC50 in data set [3] of 180 nM.
Consider `Cc1ccc(Oc2ccc(Nc3ncnc4cccc(O[C@H](C)C(=O)N5CCOCC5)c34)cc2C)cn1`, for which the IC50 in [3] came to 22 nM. Compared with the last compound, the IC50 is about 8.2-fold lower.
In [3], `Cc1ccc(Oc2ccc(Nc3ncnc4cccc(O[C@H](C)C(=O)N5CCOCC5)c34)cc2Cl)cn1` returned an IC50 of 27 nM.
Consider `CNC(=O)[C@@H](C)Oc1cccc2ncnc(Nc3ccc(OCc4ccccn4)c(Cl)c3)c12`, for which the IC50 amounted to 32000 nM in [1] and 66 nM in data set [3].
Take `C[C@@H](Oc1cccc2ncnc(Nc3ccc(OCc4ccccn4)c(Cl)c3)c12)C(=O)N1CCOCC1`: the results for the IC50 in data set [1] and in [3] were 10000 nM and 19 nM, respectively.
Take `COc1cc(Nc2ncnc3cccc(O[C@H](C)C(=O)N4CCOCC4)c23)ccc1Oc1ccc(C)nc1`: the IC50 in data set [3] is 23 nM.
As for `C[C@@H](Oc1cccc2ncnc(Nc3ccc(OCc4ccccn4)c(Cl)c3)c12)C(=O)N(C)C`, the Vd in [18] is 1 L/kg; in [24], 0.5 L/kg. In addition, the IC50 in data set [19] was under 1 nM; in data set [1] it was 14000 nM; in “cells” it was 100 nM; with KB, 1000 nM; in data set [9], 22 nM; in data set [3], 34 nM. Moreover, the figures for the “%hepatic blood flow” value in the data set with Canis familiaris [20] and in the data set with Rattus norvegicus [26] were 24% and 4.3%, respectively. The values for the fraction unbound in data set [6] and in data set [10] were 0.004 and 0.011, respectively. Moreover, the bioavailability in [25] was found to be 75%; in [23], 89%. Further, the solubility at 24 h in [16] worked out at 6 µM (≈ 2.87 µg/mL). This compound showed a logD in data set [17] of 3.7.
The compound `Cc1ccc(Oc2ccc(Nc3ncnc4cccc(O[C@@H](C)C(=O)N(C)C)c34)cc2C)cn1` gave an IC50 in data set [1] of 11000 nM.
In the case of `Cc1ccc(Oc2ccc(Nc3ncnc4cccc(O[C@@H](C)C(=O)N5CCOCC5)c34)cc2C)cn1`, half-maximal inhibition in data set [3] (IC50) required 35 nM.
On the same count and under the same terms, for `Cc1ccc(Oc2ccc(Nc3ncnc4cccc(O[C@@H](C)C(=O)N(C)CCO)c34)cc2C)cn1` the value was 78 nM.
